# Reference: patent US7939530B2, “Treatment of lymphoma using 10-propargyl-10-deazaaminopterin and gemcitabine” (Sloan-Kettering Institute for Cancer Research, priority 2004, dated 2011)
# Several values for one entry are separate records, joined by “and”; a condition that tells them apart may be missing. Identical values can stand only once.
# Experiments:
# SKI-DLCL-1 cells = assay: Induction of apoptosis (YO-PRO-1/propidium iodide flow cytometry); format: cell-based, human; conditions: all drugs 1 nM, total exposure 72 hours, sequential: first drug 24 hours prior to second
# Method: Ara-C, PDX and Gem in combined and scheduled exposures. In each case, the total exposure time was 72 hours. In sequential treatments, the first drug was administered 24 hours prior to the second drug.
# To assess apoptosis occurring as a result of combination therapies, apoptosis was assessed using two well standardized techniques. In the first (YO-PRO), cell membrane permeability was determined by measuring fluorescence of treated and control cells. 2×10^7 SKI-DLBCL cells were treated with either MTX, Ara-C, Gem or PDX alone or combinations of drug given together or scheduled. All drugs were assayed at equimolar concentrations (i.e. 1 nM). The incubation conditions were modeled after the in vitro cytotoxicity experiments. Single agent drugs or combinations of all drugs studied without schedule considerations were incubated for 72 hours, while drugs that were studied in some schedule were introduced in a 24+48 incubation scheme (i.e. drug B added 24 hours following drug A, then incubated for an additional 48 hours for a total incubation time of 72 hours). Cells were then collected, washed twice and re-suspended at a concentration of 1×10^6/mL in DPBS. Membrane permeability was detected via the differential cellular permeability of the fluorescent dyes YO-PRO®-1 and propidium iodide by flow cytometry, as per the manufacturer's guidelines (Vybrant apoptosis kit #4, Molecular Probes, Eugene, Oreg.). In addition to monitoring apoptosis, cell cycle kinetic analyses were also performed on all treated cells based the propidium iodide binding. Apoptotic cells were noted to be permeable to the green fluorescent dye YO-PRO®-1 (em 530, FL-1), and impermeable to the red fluorescent dye propidium iodide (em 575, FL-3). Typically, […] cells allow the entrance of both dyes, whereas living cells are impermeable to both dyes.
# [1] = tested on: subcutaneous tumors of SKI; assay: Preliminary combination xenograft experiment; format: in vivo, irradiated NOD-SCID mice; conditions: 60 mg/kg; regrowth by day 44 after initial response
# Method: Given the experience that SKI-DLCL-1 is the most PDX resistant line in the panel, it was selected for these in vivo synergy experiments. […] All animals were treated with the maximum tolerated dose (MTD) of each drug, save the combination studies.
# [2] = tested on: HT (Diffuse large B cell) cell line; assay: Growth inhibition in vitro (XTT or Alamar blue); format: cell-based, human; conditions: 5 day continuous drug exposure
# Method: (§1) A PDX preparation prepared in accordance with Example 1 and an MTX preparation were tested for cytotoxicity against a panel of five human lymphoma cell lines. Experiments were performed as described previously. (Sirotnak et al., Cancer Chemother. Pharmacol. 12: 18-25 (1984). In brief, 2.5 to 5×10^3 cells were plated per well in 96-well flat bottom plates. Drug was added in a 0.9% NaCl solution (pH 7.0) over a range of concentrations, and cells were continuously exposed to drug for 5 days. Colorimetric dye (XTT or Alamar blue) was added for an addition period of time (XTT dye, 6 hours, Alamar blue, 24 hours). Each plate was then read on an automated plate reader at 590 nm. The percentage of inhibition was calculated as growth of cells exposed to drug divided by growth of controls (cells incubated with media only). IC50 values were determined as the drug concentrations at which cell growth was inhibited 50% as compared to controls. Experiments were repeated as lest three times. Experiments were also conducted with continuous drug exposures lasting for 3 and 4 days with results similar to the 5 day results.
# [3] = tested on: Hs445 (Hodgkin's disease) cell line; assay: Growth inhibition in vitro (XTT or Alamar blue); format: cell-based, human; conditions: 5 day continuous drug exposure
# Method: as §1
# [4] = tested on: Raji (Burkitt's) cell line; assay: Growth inhibition in vitro (XTT or Alamar blue); format: cell-based, human; conditions: 5 day continuous drug exposure
# Method: as §1
# [5] = tested on: RL (Transformed follicular) cell line; assay: Growth inhibition in vitro (XTT or Alamar blue); format: cell-based, human; conditions: 5 day continuous drug exposure
# Method: as §1
# [6] = tested on: human SKI-DLCL-1 (de novo diffuse large B cell) non-Hodgkin's lymphoma xenografts; assay: Subcutaneous lymphoma xenograft treatment; format: in vivo; conditions: MTX 40 mg/kg
# Text: (§2) In order to study the effects of PDX on lymphoma growth in vivo, subcutaneous transplantation models in NOD/SCID mice were generated using three established human lymphoma cell line representative of aggressive transformed FL (RL) and de novo extranodal DLBCL (HT; SKI-DLCL-1) histologies. Six to eight week old non-obsese diabetic severe combined immunodeficient (NOD/SCID) mice (Jackson Laboratories, Bar Harbor, Me.) were sub-lethally irradiated with […] from a gamma source and inoculated with 10×10^6 lymphoma cells via a subcutaneous route. When tumor volumes approached 100 mm^3, mice were divided into three groups, averaging 3-8 mice per group. Mice were treated with normal saline or the maximum tolerated dose (MTD) of MTX (40 mg/kg) or PDX (60 mg/kg) via an intraperitoneal route twice weekly for two weeks (four total doses). […] (Sirotnak, et al., Cancer Chemother. Pharmacol. 12: 26-30 (1984); Sirotnak et al., Cancer Chemother. Pharmacol. 42: 313-318 (1998).
# (§3) Engraftment rates in this experiment ranged from 80 to 90%. Palpable tumors formed under the skin approximately 7-10 days after inoculation and were readily measurable with calipers. Mice with subcutaneous lymphoma growths survived an average of 40-50 days after inoculation.
# [7] = tested on: human HT (diffuse large B cell) non-Hodgkin's lymphoma xenografts; assay: Subcutaneous lymphoma xenograft treatment; format: in vivo
# Text: as §2, §3
# [8] = tested on: human RL (transformed follicular) non-Hodgkin's lymphoma xenografts; assay: Subcutaneous lymphoma xenograft treatment; format: in vivo; conditions: MTX 40 mg/kg
# Text: as §2, §3
# SKI-DLBCL-1 xenografts = assay: TUNEL immunohistochemical staining for apoptosis in xenografts; format: in vivo, mice; conditions: day 21; four doses on days 0, 3, 7 and 10; MTX 40 mg/kg, PDX 60 mg/kg
# Method: Immunohistochemical staining for apoptosis as measured by terminal deoxynucleotide transferase-mediated nick end-labeling (TUNEL) was performed on SKI-DLBCL-1 xenografts from mice sacrificed at day 21 following initiation of antifolate therapy. Mice received four doses of saline, MTX (40 mg/kg) or PDX (60 mg/kg) on days 0, 3, 7 and 10.
# [9] = cited from earlier work
# [10] = PDX 60 mg/kg ip twice weekly for two weeks
# [11] = MTX 40 mg/kg, PDX 60 mg/kg ip twice weekly for two weeks
structure (smiles),measurement,setting,value
"C#CCC(Cc1cnc2nc(N)nc(N)c2n1)c1ccc(C(=O)N[C@@H](CCC(=O)O)C(=O)O)cc1 (stereo partly shown) [PDX, 10-Propargyl-10-deazaminopterin]",% change in apoptosis,SKI-DLCL-1 cells,28.21%
same,tumor volume as % of initial tumor volume,[1],739%
same,IC50,[2],2 ± 0.4 nM
same,IC50,[3],1.6 ± 0.8 nM
same,IC50,[4],2 ± 0.3 nM
same,IC50,[5],23 ± 2 nM
same,Complete Regression (no/total),[6]; PDX 60 mg/kg,3 of 10 and 3/10
same,tumor regressions / complete remissions (% of mice),[6]; PDX 60 mg/kg,30%
same,Avg Tumor Diameter (mm ± SE),[6]; [10],3.5 ± 0.7 mm
same,Avg change in Tumor Volume (mm^3 ± SE),[6]; [10],−81 ± 16 mm^3
same,Weight Change (%),[6]; [10],−1.2%
same,Complete Regression (no/total),"[7]; MTX 40 mg/kg, PDX 60 mg/kg",8 of 9 and 8/9
same,complete tumor regression (% of mice),"[7]; MTX 40 mg/kg, PDX 60 mg/kg",89%
same,Avg change in Tumor Volume (mm^3 ± SE),[7]; [11],−95 ± 0.8 mm^3
same,Weight Change (%),[7]; [11],−8.9%
same,Avg Tumor Diameter (mm ± SE),"[7]; MTX 40 mg/kg, PDX 60 mg/kg, at the nadir of tumor regression",0.5 mm and 0.5 ± 0.3 mm
same,Tumor Regression (%),"[7]; PDX 60 mg/kg, average tumor regression",99%
same,Complete Regression (no/total),[8]; PDX 60 mg/kg,5 of 9 and 5/9
same,tumor regressions (% of mice),[8]; PDX 60 mg/kg,57%
same,Avg Tumor Diameter (mm ± SE),[8]; [10],2.7 ± 1.1 mm
same,Avg change in Tumor Volume (mm^3 ± SE),[8]; [10],−46 ± 34 mm^3
same,Weight Change (%),[8]; [10],−11.1%
same,apoptotic cells in tumor tissue (TUNEL),SKI-DLBCL-1 xenografts,high level of apoptotic cells
same,maximum tolerated dose (MTD),"[9]; intraperitoneal, twice weekly for two weeks",60 mg/kg
same,toxic deaths at the MTD,[9]; nude mice,no toxic deaths
